Measured values published in article PMC10046946, “Novel Phthalic-Based Anticancer Tyrosine Kinase Inhibitors: Design, Synthesis and Biological Activity” (Current Issues in Molecular Biology, 2023).
Several values for one entry are separate records, joined by “and”; a condition that tells them apart may be missing. Equal values may be shown once. Read-outs that look alike come from different tables or passages of the source.

Key:
[1] = tested on: K562 (chronic myelogenous leukemia); experiment: MTT cell proliferation assay, K562; type: cell-based; conditions: Homo sapiens, K562, 72 h of exposition, read-out: Anti-proliferative activity IC50, K562
Protocol: (§1) Tests to determine the effects of the synthesized compounds on cell viability and the half-maximal inhibitory concentration (IC50) were performed using the MTT assay, as described in our prior work.
(§2) The target compounds 5, 6, 8–12, 14, 15, 17–22 and 24–26 were tested for antiproliferative activity against six cancer cell lines: K562 (chronic myelogenous leukemia), HL-60 (promyelocytic leukemia), MCF-7 (breast adenocarcinoma), HepG2 (human liver cancer), A549 (lung carcinoma) and OKP-GS (renal cell carcinoma). The RPMI 1788 cells (B lymphocyte, human) were used as a control to evaluate the system toxicity of the studied compounds to normal cells. Sorafenib, nilotinib and lapatinib were utilized as reference standards for comparison.

[2] = tested on: HL-60 (promyelocytic leukemia); experiment: MTT cell proliferation assay, HL-60; type: cell-based; conditions: Homo sapiens, HL-60, 72 h of exposition, read-out: Anti-proliferative activity IC50, HL-60
Protocol: as §1, §2

[3] = tested on: MCF-7 (breast adenocarcinoma); experiment: MTT cell proliferation assay, MCF-7; type: cell-based; conditions: Homo sapiens, MCF7, MCF-7, 72 h of exposition, read-out: Anti-proliferative activity IC50, MCF-7
Protocol: as §1, §2

[4] = tested on: HepG2 (human liver cancer); experiment: MTT cell proliferation assay, HepG2; type: cell-based; conditions: HepG2, 72 h of exposition, read-out: Anti-proliferative activity IC50, HepG2
Protocol: as §1, §2

[5] = tested on: A549 (lung carcinoma); experiment: MTT cell proliferation assay, A549; type: cell-based; conditions: Homo sapiens, A549, 72 h of exposition, read-out: Anti-proliferative activity IC50, A549
Protocol: as §1, §2

[6] = tested on: OKP-GS (renal cell carcinoma); experiment: MTT cell proliferation assay, OKP-GS; type: cell-based; conditions: 72 h of exposition, read-out: Anti-proliferative activity IC50, OKP-GS
Protocol: as §1, §2

[7] = tested on: RPMI 1788 cells (B lymphocyte, human); experiment: MTT cell proliferation assay, normal RPMI 1788 cells; type: cell-based; conditions: normal human lymphoblastoid cells RPMI 1788, 72 h of exposition, read-out: Anti-proliferative activity IC50, RPMI 1788
Protocol: as §1, §2

[8] = molecular target: T1, EGFR (Homo sapiens, UniProt P00533); experiment: ADP-Glo kinase assay, EGFR; type: biochemical
T1 construct: purchased Promega
T1 sequence (P00533 25-1210): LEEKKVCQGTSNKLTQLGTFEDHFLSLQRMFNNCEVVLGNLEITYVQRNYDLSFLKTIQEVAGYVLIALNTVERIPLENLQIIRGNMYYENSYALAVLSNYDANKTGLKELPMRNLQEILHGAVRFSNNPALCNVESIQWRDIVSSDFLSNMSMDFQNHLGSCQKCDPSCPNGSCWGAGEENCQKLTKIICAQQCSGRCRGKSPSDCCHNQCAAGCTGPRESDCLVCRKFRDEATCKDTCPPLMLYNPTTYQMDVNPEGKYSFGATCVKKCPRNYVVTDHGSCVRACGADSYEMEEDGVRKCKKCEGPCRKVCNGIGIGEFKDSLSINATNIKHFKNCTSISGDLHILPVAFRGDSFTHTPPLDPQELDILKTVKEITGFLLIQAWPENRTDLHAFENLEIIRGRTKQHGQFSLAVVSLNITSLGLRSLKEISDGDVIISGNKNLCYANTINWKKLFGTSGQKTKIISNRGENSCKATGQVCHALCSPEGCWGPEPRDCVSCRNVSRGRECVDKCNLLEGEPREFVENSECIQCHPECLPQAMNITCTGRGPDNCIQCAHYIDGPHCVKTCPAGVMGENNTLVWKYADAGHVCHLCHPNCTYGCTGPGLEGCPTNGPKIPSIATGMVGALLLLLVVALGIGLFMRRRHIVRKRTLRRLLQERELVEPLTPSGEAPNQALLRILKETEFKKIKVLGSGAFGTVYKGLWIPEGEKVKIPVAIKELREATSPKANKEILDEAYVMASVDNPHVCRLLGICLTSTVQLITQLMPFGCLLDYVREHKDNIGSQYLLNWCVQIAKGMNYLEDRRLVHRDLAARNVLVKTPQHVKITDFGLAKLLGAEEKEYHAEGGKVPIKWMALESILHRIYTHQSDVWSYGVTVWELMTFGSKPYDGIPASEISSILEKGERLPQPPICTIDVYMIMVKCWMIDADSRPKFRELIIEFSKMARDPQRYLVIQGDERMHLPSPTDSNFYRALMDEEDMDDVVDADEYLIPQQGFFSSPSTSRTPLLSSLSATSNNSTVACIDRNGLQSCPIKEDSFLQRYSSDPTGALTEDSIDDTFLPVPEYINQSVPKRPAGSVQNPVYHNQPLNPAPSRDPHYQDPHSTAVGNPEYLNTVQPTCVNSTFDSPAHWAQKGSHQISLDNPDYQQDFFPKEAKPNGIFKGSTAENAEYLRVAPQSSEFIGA

[9] = molecular target: T2, HER2 (Homo sapiens, UniProt P04626); experiment: ADP-Glo kinase assay, HER2; type: biochemical
T2 construct: purchased Promega
T2 sequence (P04626 23-1255): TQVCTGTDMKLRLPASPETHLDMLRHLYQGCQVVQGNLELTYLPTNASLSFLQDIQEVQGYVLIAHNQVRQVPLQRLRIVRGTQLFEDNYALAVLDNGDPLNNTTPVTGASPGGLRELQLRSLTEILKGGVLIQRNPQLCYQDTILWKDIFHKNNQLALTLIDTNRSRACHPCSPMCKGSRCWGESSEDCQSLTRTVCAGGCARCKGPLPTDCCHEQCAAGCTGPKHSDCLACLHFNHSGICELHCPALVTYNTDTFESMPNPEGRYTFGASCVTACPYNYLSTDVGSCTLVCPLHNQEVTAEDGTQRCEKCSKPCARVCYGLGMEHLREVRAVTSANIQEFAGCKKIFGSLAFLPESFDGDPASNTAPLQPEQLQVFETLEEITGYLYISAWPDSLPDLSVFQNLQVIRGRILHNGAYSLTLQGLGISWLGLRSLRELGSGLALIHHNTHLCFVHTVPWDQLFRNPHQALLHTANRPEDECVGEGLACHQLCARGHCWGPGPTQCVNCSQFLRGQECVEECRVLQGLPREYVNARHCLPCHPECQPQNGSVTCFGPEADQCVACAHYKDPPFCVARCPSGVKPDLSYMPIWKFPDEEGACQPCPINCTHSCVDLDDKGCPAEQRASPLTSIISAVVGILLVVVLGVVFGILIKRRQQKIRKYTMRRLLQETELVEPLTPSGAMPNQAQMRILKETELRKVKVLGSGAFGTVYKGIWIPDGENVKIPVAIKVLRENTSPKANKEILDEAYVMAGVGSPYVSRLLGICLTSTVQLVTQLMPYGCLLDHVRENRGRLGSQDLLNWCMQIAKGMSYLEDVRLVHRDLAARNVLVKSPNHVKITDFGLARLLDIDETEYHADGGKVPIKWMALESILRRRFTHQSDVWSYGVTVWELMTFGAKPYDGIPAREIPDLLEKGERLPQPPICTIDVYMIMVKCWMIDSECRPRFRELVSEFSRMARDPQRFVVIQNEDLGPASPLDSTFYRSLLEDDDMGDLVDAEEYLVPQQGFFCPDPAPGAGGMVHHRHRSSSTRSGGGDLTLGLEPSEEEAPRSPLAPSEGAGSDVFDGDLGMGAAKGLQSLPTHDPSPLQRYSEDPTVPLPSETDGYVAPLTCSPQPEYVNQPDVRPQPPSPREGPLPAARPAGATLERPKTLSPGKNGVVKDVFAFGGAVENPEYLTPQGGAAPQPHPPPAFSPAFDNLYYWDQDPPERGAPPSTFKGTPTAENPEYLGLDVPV
Protocol: (§3) The ADP-Glo kinase assay (Promega, Madison, WI, USA) was used to screen compounds 5, 8–10, 14, 17, 19 and 24 for the tyrosine kinase (Kinase Selectivity Profiling System TK-1, Promega, Madison, WI, USA) and serine/threonine kinase (Kinase Selectivity Profiling System Other/CK-1, Promega, Madison, WI, USA) inhibition effects according to the manufacturer’s technical manual. The luminescence data were analyzed as described in our prior work.
(§4) The selectivity of the potential kinase inhibitor against a specific protein kinase or a specific family of kinases was investigated using the Kinase Selectivity Profiling System TK-1, Other/CK-1 and ADP-Glo™ Kinase assay kit (Promega, Madison, WI, USA).

[10] = molecular target: T3, HER4 (Homo sapiens, UniProt Q15303); experiment: ADP-Glo kinase assay, HER4; type: biochemical
T3 construct: purchased Promega
T3 sequence (Q15303 26-1308): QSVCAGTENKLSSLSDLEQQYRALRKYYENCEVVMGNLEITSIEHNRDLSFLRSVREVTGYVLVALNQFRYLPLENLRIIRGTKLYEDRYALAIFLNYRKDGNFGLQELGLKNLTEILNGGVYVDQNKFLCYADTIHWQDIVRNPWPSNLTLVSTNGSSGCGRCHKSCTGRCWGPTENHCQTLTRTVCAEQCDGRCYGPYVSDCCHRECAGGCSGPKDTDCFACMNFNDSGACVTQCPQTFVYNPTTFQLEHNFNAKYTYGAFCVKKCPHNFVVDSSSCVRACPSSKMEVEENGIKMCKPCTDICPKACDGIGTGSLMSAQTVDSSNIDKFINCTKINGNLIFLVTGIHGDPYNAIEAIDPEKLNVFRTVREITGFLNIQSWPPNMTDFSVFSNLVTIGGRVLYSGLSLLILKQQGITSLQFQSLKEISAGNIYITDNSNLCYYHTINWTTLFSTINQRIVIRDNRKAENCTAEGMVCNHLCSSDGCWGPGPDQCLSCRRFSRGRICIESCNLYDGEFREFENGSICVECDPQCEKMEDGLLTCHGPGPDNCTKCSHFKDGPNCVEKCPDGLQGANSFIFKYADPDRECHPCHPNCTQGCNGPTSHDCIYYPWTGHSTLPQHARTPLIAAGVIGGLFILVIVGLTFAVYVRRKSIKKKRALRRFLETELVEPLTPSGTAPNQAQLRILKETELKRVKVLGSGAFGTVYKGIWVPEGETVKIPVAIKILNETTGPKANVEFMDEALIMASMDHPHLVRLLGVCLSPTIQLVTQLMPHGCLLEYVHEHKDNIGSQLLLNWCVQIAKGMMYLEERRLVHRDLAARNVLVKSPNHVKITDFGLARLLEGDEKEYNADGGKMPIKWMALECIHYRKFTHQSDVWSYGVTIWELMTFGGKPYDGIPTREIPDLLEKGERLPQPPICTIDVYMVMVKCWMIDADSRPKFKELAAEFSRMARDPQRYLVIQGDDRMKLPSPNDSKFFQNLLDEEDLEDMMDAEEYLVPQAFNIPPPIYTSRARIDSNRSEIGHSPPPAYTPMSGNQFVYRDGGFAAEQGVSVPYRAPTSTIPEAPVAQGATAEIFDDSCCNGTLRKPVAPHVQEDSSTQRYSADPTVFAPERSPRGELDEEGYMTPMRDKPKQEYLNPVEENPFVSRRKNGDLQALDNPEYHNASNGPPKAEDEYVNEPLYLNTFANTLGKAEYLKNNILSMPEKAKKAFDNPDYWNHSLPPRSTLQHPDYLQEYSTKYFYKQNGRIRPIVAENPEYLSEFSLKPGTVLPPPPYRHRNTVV
Protocol: as §3, §4

[11] = molecular target: T4, IGF1R (insulin-like growth factor 1 receptor) (Homo sapiens, UniProt P08069); experiment: ADP-Glo kinase assay, IGF1R; type: biochemical
T4 construct: purchased Promega
Protocol: as §3, §4

[12] = molecular target: T5, InsR (insulin receptor) (Homo sapiens, UniProt P06213); experiment: ADP-Glo kinase assay, InsR; type: biochemical
T5 construct: purchased Promega
Protocol: as §3, §4

[13] = molecular target: T6, KDR (VEGFR-2) (Homo sapiens, UniProt P35968); experiment: ADP-Glo kinase assay, KDR; type: biochemical
T6 construct: purchased Promega

[14] = molecular target: T7, PDGFRα (Homo sapiens, UniProt P16234); experiment: ADP-Glo kinase assay, PDGFRα; type: biochemical
T7 construct: purchased Promega
Protocol: as §3, §4

[15] = molecular target: T8, PDGFRβ (Homo sapiens, UniProt P09619); experiment: ADP-Glo kinase assay, PDGFRβ; type: biochemical
T8 construct: purchased Promega
T8 sequence (P09619 33-1106): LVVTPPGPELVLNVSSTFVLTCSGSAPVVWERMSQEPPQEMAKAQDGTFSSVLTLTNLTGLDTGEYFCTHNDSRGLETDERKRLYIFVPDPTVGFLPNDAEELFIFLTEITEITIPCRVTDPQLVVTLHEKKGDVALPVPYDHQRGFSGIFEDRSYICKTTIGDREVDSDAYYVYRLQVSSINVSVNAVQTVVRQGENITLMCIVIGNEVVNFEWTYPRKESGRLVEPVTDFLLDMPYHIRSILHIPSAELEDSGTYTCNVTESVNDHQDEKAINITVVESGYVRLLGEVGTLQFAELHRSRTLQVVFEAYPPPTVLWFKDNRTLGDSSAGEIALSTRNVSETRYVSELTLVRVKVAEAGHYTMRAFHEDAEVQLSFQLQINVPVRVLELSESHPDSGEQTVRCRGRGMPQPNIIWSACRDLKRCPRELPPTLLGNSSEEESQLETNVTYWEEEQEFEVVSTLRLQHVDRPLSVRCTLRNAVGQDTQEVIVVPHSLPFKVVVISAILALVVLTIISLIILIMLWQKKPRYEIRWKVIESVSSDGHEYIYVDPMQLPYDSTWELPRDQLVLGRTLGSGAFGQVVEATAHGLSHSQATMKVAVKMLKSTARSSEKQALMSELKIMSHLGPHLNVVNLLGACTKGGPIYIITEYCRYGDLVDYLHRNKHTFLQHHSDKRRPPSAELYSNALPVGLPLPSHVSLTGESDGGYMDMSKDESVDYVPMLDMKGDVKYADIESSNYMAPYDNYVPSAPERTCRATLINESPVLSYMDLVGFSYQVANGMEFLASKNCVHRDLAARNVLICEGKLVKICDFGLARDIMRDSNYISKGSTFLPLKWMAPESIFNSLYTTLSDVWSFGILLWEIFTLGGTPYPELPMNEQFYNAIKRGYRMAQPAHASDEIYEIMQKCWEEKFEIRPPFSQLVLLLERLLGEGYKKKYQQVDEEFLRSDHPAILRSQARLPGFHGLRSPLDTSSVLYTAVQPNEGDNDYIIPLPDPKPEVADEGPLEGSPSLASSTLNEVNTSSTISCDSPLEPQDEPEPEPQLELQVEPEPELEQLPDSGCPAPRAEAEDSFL
Protocol: as §3, §4

[16] = molecular target: T9, Aurora A (Homo sapiens, UniProt O14965); experiment: ADP-Glo kinase assay, Aurora A; type: biochemical
T9 construct: purchased Promega
T9 sequence (O14965 1-403): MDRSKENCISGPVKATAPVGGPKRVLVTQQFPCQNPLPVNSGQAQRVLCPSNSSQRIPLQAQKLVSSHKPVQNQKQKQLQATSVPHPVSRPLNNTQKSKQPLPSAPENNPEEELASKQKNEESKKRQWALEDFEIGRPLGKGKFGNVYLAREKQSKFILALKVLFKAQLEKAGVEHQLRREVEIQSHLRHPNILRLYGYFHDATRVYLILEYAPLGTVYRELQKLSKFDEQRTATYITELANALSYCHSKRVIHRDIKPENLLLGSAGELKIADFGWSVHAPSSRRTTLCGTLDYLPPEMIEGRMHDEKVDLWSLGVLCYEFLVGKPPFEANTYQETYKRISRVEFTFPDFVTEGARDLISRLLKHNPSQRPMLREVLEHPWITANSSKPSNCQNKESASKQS
Protocol: as §3, §4

[17] = molecular target: T10, Aurora B (Homo sapiens, UniProt Q96GD4); experiment: ADP-Glo kinase assay, Aurora B; type: biochemical
T10 construct: purchased Promega
T10 sequence (Q96GD4 whole entry): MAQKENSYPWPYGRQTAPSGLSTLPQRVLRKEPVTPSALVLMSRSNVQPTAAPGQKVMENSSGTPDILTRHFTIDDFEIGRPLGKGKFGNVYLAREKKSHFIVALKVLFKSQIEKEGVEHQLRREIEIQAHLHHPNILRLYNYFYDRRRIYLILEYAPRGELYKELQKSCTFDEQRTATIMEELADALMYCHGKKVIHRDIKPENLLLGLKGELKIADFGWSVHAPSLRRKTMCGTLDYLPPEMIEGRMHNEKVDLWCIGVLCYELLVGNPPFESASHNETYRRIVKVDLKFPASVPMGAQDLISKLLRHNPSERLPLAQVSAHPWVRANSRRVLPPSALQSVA
Protocol: as §3, §4

[18] = tested on: K562 cells; experiment: Cell cycle analysis (propidium iodide, flow cytometry); type: cell-based; conditions: 48 h
Protocol: Tumor cells were seeded on a 6-well plate at a density of 400,000 per well for K562. Test compounds 5, 14 and 15 were added at concentrations of 1, 5 and 10 μM in duplicate for 48 h. The methodology and analysis of the obtained data were performed as described in our prior work.
As shown above, compounds 5, 14 and 15 had significant antiproliferative activities, which is why their influences on the cell cycle and apoptosis level were determined, with the aim of understanding whether these effects are cytostatic or cytotoxic. In the cell cycle experiments, K562 cells were used. […] For the determination of changes in the distribution of cells in the phases of the cell cycle, the widely employed method of staining the cells with propidium iodide was used.

[19] = tested on: K562 cells; experiment: Annexin V-FITC/PI apoptosis assay; type: cell-based; conditions: 48 h
Protocol: K562 tumor cells were plated on a 6-well plate at a density of 400,000 per well. Test compounds 5, 14 and 15 were added at concentrations of 1, 5 and 10 μM in duplicate for 48 h. The methodology and analysis of the obtained data were performed as described in our prior work.
The effects of compounds 5, 14 and 15 on cell apoptosis were examined using the Annexin V-FITC Kit (Beckman Coulter, Brea, CA, USA) according to the protocols provided. The Annexin V-FITC Kit is an apoptosis detection kit based on the binding properties of annexin V to phosphatidylserine (PS) and on the DNA intercalating capability of propidium iodide (PI). K562 cells were treated with compound 5, 14 and 15 at 1, 5 and 10 μM for 48 h, after which annexin V/PI binding was measured by flow cytometry.

[20] = tested on: K562 cell line; experiment: ROS determination (DCFH-DA, flow cytometry); type: cell-based; conditions: 48 h
Protocol: The redox status was assessed using the K562 cell line. […] Then, the cells were washed to remove the 2′,7′-dichlorodihydrofluorescein diacetate by centrifugation at 1000 rpm for 5 min. The measurements were conducted using a Cytomics FC500 Beckman Coulter flow cytometer (FL1 channel for DCF).

[21] = tested on: cancer cell lines (K562, HL-60, MCF-7, HepG2, A549, OKP-GS); experiment: MTT cell proliferation assay, statements over the whole cell line panel; type: cell-based; conditions: statement over the cell line panel, studied concentration range up to 50 µM
Protocol: as §1, §2

Cc1cn(-c2cc(NC(=O)c3cccc(C(=O)Nc4cccc(C(F)(F)F)c4)c3)cc(C(F)(F)F)c2)cn1 [Compound 5, N1-(3-(4-methyl-1H-imidazol-1-yl)-5-(trifluoromethyl)phenyl)-N3-(3-(trifluoromethyl)phenyl)isophthalamide]
IC50 [1]: 3.42 ± 0.78 µM | IC50 [2]: 7.04 ± 0.29 µM | IC50 [3]: 4.91 ± 1.27 µM | IC50 [4]: 7.84 ± 2.61 µM | IC50 ([4]; Homo sapiens, HepG2, 72 h): 8.84 µM | IC50 [5]: > 50 µM | IC50 [6]: 17.8 ± 2.13 µM | IC50 [7]: 2.86 ± 0.09 µM | inhibition at 10 µM [8]: 0% | inhibition at 10 µM [9]: 33% | inhibition at 10 µM [10]: 0% | inhibition at 10 µM [11]: 0% | inhibition at 10 µM [12]: 0% | inhibition at 10 µM [13]: 18% | inhibition at 10 µM [14]: 73% | inhibition at 10 µM [15]: 18% | inhibition at 10 µM [16]: 0% | inhibition at 10 µM [17]: 0% | Apoptosis, % (cell cycle analysis) ([18]; K562, 1 µM): 14.56% | G1, % ([18]; K562, 1 µM): 37.92% | G2/M, % ([18]; K562, 1 µM): 45.08% | S, % ([18]; K562, 1 µM): 17.0% and 17.01% | Apoptosis, % (cell cycle analysis) ([18]; K562, 5 µM): 37.20% | G1, % ([18]; K562, 5 µM): 31.77% | G2/M, % ([18]; K562, 5 µM): 50.09% | S, % ([18]; K562, 5 µM): 18.14% | Apoptosis, % (cell cycle analysis) ([18]; K562, 10 µM): 53.50% | G1, % ([18]; K562, 10 µM): 29.86% | G2/M, % ([18]; K562, 10 µM): 38.0% and 38.08% | S, % ([18]; K562, 10 µM): 32.05% | normal live cells (living cells) ([19]; K562, 1 µM): 79.72% | early apoptotic cells ([19]; K562, 5 µM): 29.07% | late apoptotic cells ([19]; K562, 5 µM): 19.93% | normal live cells (living cells) ([19]; K562, 5 µM): 48.87% | necrotic cells ([19]; K562, 10 µM): 16.38% | normal live cells (living cells) ([19]; K562, 10 µM): 38.66% | ROS Level, % of Control ([20]; K562, 5 µM): 76.76 % of Control | ROS Level, % of Control ([20]; K562, 10 µM): 64.66 % of Control | ROS Level, % of Control ([20]; K562, 20 µM, 20 µM): 62.9 % of Control

CNC(=O)c1cc(Oc2ccc(NC(=O)c3cccc(C(=O)Nc4cccc(C(F)(F)F)c4)c3)cc2)ccn1 [Compound 6, N1-(4-((2-(methylcarbamoyl)pyridin-4-yl)oxy)phenyl)-N3-(3-(trifluoromethyl)phenyl)isophthalamide]
IC50 [1]: > 50 µM | IC50 [2]: > 50 µM | IC50 [3]: 41.1 ± 5.06 µM | IC50 ([4]; Homo sapiens, HepG2, 72 h): > 50 µM | IC50 [5]: > 50 µM | IC50 [6]: > 50 µM | IC50 [7]: 13 ± 2.99 µM | Antiproliferative activity (IC50) over the studied cell cultures [21]: lack of sensitivity of the cancer cells in the studied concentration range | melting point: 258 to 260 °C
